Laboratory results taken from PubChem BioAssay AID2060506 (Molecular Pharmacology Branch, DTP, NCI, 2025).

System: 598228-144-R-J1-PDC complex spheroid viability
Assay: Anticancer human tumor 598228-144-R-J1-PDC patient-derived serous endometrial adenocarcinoma cell line growth inhibition [GQUAD]
Settings: for IC50: curve of first compound; for viability, T/C: stronger effect = lower value
Procedure, shortened: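 Multi-cell-type spheroids of tumor cells with HUVEC and mesenchymal stem cells, treated with drug combinations. Concentrations descend in half-log steps from near clinical Cmax, or from 10 microM where Cmax is unknown; viability read-out.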

[1] = second compound 0.0316 µM, first compound 0.0316 µM
[2] = second compound 0.0316 µM, first compound 0.1 µM
[3] = second compound 0.0316 µM, first compound 0.316 µM
[4] = second compound 0.0316 µM, first compound 1 µM
[5] = second compound 0.0316 µM, first compound 3.16 µM
[6] = second compound 0.0316 µM, first compound 10 µM
[7] = second compound 0.1 µM, first compound 0.0316 µM
[8] = second compound 0.1 µM, first compound 0.1 µM
[9] = second compound 0.1 µM, first compound 0.316 µM
[10] = second compound 0.1 µM, first compound 1 µM
[11] = second compound 0.1 µM, first compound 3.16 µM
[12] = second compound 0.1 µM, first compound 10 µM
[13] = second compound 0.316 µM, first compound 0.0316 µM
[14] = second compound 0.316 µM, first compound 0.1 µM
[15] = second compound 0.316 µM, first compound 0.316 µM
[16] = second compound 0.316 µM, first compound 1 µM
[17] = second compound 0.316 µM, first compound 3.16 µM
[18] = second compound 0.316 µM, first compound 10 µM
[19] = second compound 1 µM, first compound 0.0316 µM
[20] = second compound 1 µM, first compound 0.1 µM
[21] = second compound 1 µM, first compound 0.316 µM
[22] = second compound 1 µM, first compound 1 µM
[23] = second compound 1 µM, first compound 3.16 µM
[24] = second compound 1 µM, first compound 10 µM
[25] = second compound 3.16 µM, first compound 0.0316 µM
[26] = second compound 3.16 µM, first compound 0.1 µM
[27] = second compound 3.16 µM, first compound 0.316 µM
[28] = second compound 3.16 µM, first compound 1 µM
[29] = second compound 3.16 µM, first compound 3.16 µM
[30] = second compound 3.16 µM, first compound 10 µM
[31] = second compound 10 µM, first compound 0.0316 µM
[32] = second compound 10 µM, first compound 0.1 µM
[33] = second compound 10 µM, first compound 0.316 µM
[34] = second compound 10 µM, first compound 1 µM
[35] = second compound 10 µM, first compound 3.16 µM
[36] = second compound 10 µM, first compound 10 µM
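Also: spheroids exposed to the agents for one week before reading.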
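For viability, T/C in this document: percent of vehicle DMSO control viability so 100% = untreated growth.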

SMILES: CC(=O)O[C@H]1C(=O)[C@@]2(C)[C@H]([C@H](OC(=O)c3ccccc3)[C@]3(O)C[C@H](OC(=O)[C@H](O)[C@@H](NC(=O)c4ccccc4)c4ccccc4)C(C)=C1C3(C)C)[C@]1(OC(C)=O)CO[C@@H]1C[C@@H]2O + Cc1[nH]c2ccc(F)cc2c1-c1nc2c3cccnc3c3ncccc3c2[nH]1
- IC50 (second compound 0.0316 µM): 0.141 µM
- IC50 (second compound 0.1 µM): 0.051 µM
- IC50 (second compound 0.316 µM): 4.36 µM
- IC50 (second compound 1 µM): < 0.0316 µM
- IC50 (second compound 3.16 µM): < 0.0316 µM
- IC50 (second compound 10 µM): < 0.0316 µM
- viability, T/C [1]: 56.2%
- viability, T/C [2]: 46.4%
- viability, T/C [3]: 48.4%
- viability, T/C [4]: 43.9%
- viability, T/C [5]: 50.9%
- viability, T/C [6]: 39.8%
- viability, T/C [7]: 55.1%
- viability, T/C [8]: 42.1%
- viability, T/C [9]: 52.2%
- viability, T/C [10]: 41.7%
- viability, T/C [11]: 40.6%
- viability, T/C [12]: 45.6%
- viability, T/C [13]: 63.6%
- viability, T/C [14]: 59.6%
- viability, T/C [15]: 52.5%
- viability, T/C [16]: 53.3%
- viability, T/C [17]: 50.1%
- viability, T/C [18]: 49.1%
- viability, T/C [19]: 49.8%
- viability, T/C [20]: 42.9%
- viability, T/C [21]: 50.1%
- viability, T/C [22]: 39%
- viability, T/C [23]: 37.5%
- viability, T/C [24]: 40.1%
- viability, T/C [25]: 45.2%
- viability, T/C [26]: 33.6%
- viability, T/C [27]: 37.5%
- viability, T/C [28]: 39.3%
- viability, T/C [29]: 34.9%
- viability, T/C [30]: 38.4%
- viability, T/C [31]: 40.3%
- viability, T/C [32]: 46.3%
- viability, T/C [33]: 41.7%
- viability, T/C [34]: 49.5%
- viability, T/C [35]: 48.3%
- viability, T/C [36]: 39.6%

SMILES: CC(C)(O)C1CCC(Nc2ccc3ncc(-c4cccc(C(F)(F)F)c4)n3n2)CC1 (centres undefined) + Cc1[nH]c2ccc(F)cc2c1-c1nc2c3cccnc3c3ncccc3c2[nH]1
- IC50 (second compound 0.0316 µM): 2.4 µM
- IC50 (second compound 0.1 µM): 2.37 µM
- IC50 (second compound 0.316 µM): 2.24 µM
- IC50 (second compound 1 µM): 1.29 µM
- IC50 (second compound 3.16 µM): < 0.0316 µM
- IC50 (second compound 10 µM): 1.33 µM
- viability, T/C [1]: 106%
- viability, T/C [2]: 112%
- viability, T/C [3]: 109%
- viability, T/C [4]: 86.5%
- viability, T/C [5]: 38.8%
- viability, T/C [6]: 30.7%
- viability, T/C [7]: 133%
- viability, T/C [8]: 121%
- viability, T/C [9]: 103%
- viability, T/C [10]: 95.3%
- viability, T/C [11]: 32.2%
- viability, T/C [12]: 30.1%
- viability, T/C [13]: 77.5%
- viability, T/C [14]: 85.5%
- viability, T/C [15]: 81.3%
- viability, T/C [16]: 93.8%
- viability, T/C [17]: 35.2%
- viability, T/C [18]: 26.3%
- viability, T/C [19]: 58.7%
- viability, T/C [20]: 67%
- viability, T/C [21]: 57.5%
- viability, T/C [22]: 55.8%
- viability, T/C [23]: 30.6%
- viability, T/C [24]: 24%
- viability, T/C [25]: 30.7%
- viability, T/C [26]: 40.9%
- viability, T/C [27]: 38.8%
- viability, T/C [28]: 39.7%
- viability, T/C [29]: 23.1%
- viability, T/C [30]: 27.7%
- viability, T/C [31]: 76.4%
- viability, T/C [32]: 52.6%
- viability, T/C [33]: 63.2%
- viability, T/C [34]: 57.2%
- viability, T/C [35]: 25.9%
- viability, T/C [36]: 30.7%
